Measured values published in patent publication US10131652B2, “Pyrimidinyloxy benzene derivatives as herbicides” (E. I. DU PONT DE NEMOURS AND COMPANY, priority 2014, dated 2018).

Key:
Assay type in all cases: in vivo
[1] = test system: Italian ryegrass (Lolium multiflorum); test: Test B pre-/postemergence plant response
In short: (§1)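 Visual injury scores on a 0–100 scale (100 = complete control) relative to untreated plants, taken about 10 days post-treatment in greenhouse. Treatments were a directed preemergence soil spray and a postemergence spray at one- to two-leaf stage, using surfactant-containing solvent formulation.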

[2] = test system: barnyardgrass (Echinochloa crus-galli); test: Test B pre-/postemergence plant response
In short: as §1

corn (Zea mays) = test: Test B pre-/postemergence plant response
In short: as §1

[3] = test system: giant foxtail (Setaria faberii); test: Test B pre-/postemergence plant response
In short: as §1

kochia (Kochia scoparia) = test: Test B pre-/postemergence plant response
In short: as §1

[4] = test system: pigweed (Amaranthus retroflexus); test: Test B pre-/postemergence plant response
In short: as §1

[5] = test system: ragweed (common ragweed, Ambrosia elatior); test: Test B pre-/postemergence plant response
In short: as §1

[6] = test system: wheat (Triticum aestivum); test: Test B pre-/postemergence plant response
In short: as §1

[7] = test system: blackgrass (Alopecurus myosuroides); test: Test B postemergence plant response
In short: (§2)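 Visual injury ratings, 0 = no effect to 100 = complete control, versus untreated controls approximately 10 days after postemergence spraying in greenhouse. Plants were at one- to two-leaf stage, 2 to 10 cm tall, in loam soil/sand blend; a dash denotes no result.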

[8] = test system: galium (catchweed bedstraw, Galium aparine); test: Test B postemergence plant response
In short: as §2

[9] = test system: barnyardgrass (Echinochloa crus-galli); test: Test C flooded paddy test plant response; details: Flood, 250 g ai/ha; scale of 0 to 100 where 0 is no effect and 100 is complete control; 13 to 15 days
In short: (§3)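 Readout is a visual 0–100 score (100 = complete control) versus controls at 13–15 days. Plants at 2-leaf stage, flooded to 3 cm, treated through paddy water.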

[10] = test system: ducksalad (Heteranthera limosa); test: Test C flooded paddy test plant response; details: Flood, 250 g ai/ha; scale of 0 to 100 where 0 is no effect and 100 is complete control; 13 to 15 days
In short: as §3

rice (Oryza sativa) = test: Test C flooded paddy test plant response; details: Flood, 250 g ai/ha; scale of 0 to 100 where 0 is no effect and 100 is complete control; 13 to 15 days
In short: as §3

[11] = test system: small-flower umbrella sedge (Cyperus difformis); test: Test C flooded paddy test plant response; details: Flood, 250 g ai/ha; scale of 0 to 100 where 0 is no effect and 100 is complete control; 13 to 15 days
In short: as §3

[12] = 125 g ai/ha, postemergence, 0 to 100 scale, 0 no effect, 100 complete control
[13] = Postemergence, 500 g ai/ha, 0 to 100 scale (0 no effect, 100 complete control)
[14] = Preemergence, 125 g ai/ha, 0 to 100 scale where 0 is no effect and 100 is complete control
[15] = Preemergence, 500 g ai/ha, 0 to 100 scale where 0 is no effect and 100 is complete control
[16] = 31 g ai/ha, Preemergence, 0 to 100 scale where 0 is no effect and 100 is complete control
[17] = Preemergence, 125 g ai/ha, 0 to 100 scale (0 no effect, 100 complete control)
[18] = 31 g ai/ha, Postemergence, 0 to 100 scale, 0 no effect, 100 complete control

Structure (SMILES)	Plant response rating, Ryegrass, Italian [1, 12]	Plant response rating, Ryegrass, Italian [1, 13]	Plant response rating, Ryegrass, Italian [1, 15]	Plant response rating, Barnyardgrass [2, 12]	Plant response rating, Barnyardgrass [2, 13]	Plant response rating, Barnyardgrass [2, 15]	Plant response rating, Corn (corn (Zea mays); [12])	Plant response rating, Corn (corn (Zea mays); [13])	Plant response rating, Foxtail, Giant [3, 12]	Plant response rating, Foxtail, Giant [3, 13]	Plant response rating, Kochia (kochia (Kochia scoparia); [12])	Plant response rating, Pigweed [4, 12]	Plant response rating, Ragweed [5, 12]	Plant response rating, Wheat [6, 12]	Plant response rating, Blackgrass [7, 12]	Plant response rating, Galium [8, 12]	Barnyardgrass plant response rating [9]	Ducksalad plant response rating [10]	Rice plant response rating (rice (Oryza sativa))	Sedge, Umbrella plant response rating [11]	other results
CC(C)(C)c1cc(-c2ccccc2Oc2ncc(Cl)cn2)no1 [Compound 59]	0	0	0	10	10	10	0	10	10	50	0	40	0	0	0	40	0	0	0	0	Plant response rating, Ryegrass, Italian [1, 14]: 0; Plant response rating, Barnyardgrass [2, 14]: 0; Plant response rating, Foxtail, Giant [3, 14]: 10; Plant response rating, Foxtail, Giant [3, 15]: 60; Plant response rating, Kochia (kochia (Kochia scoparia); [13]): 20; Plant response rating, Kochia (kochia (Kochia scoparia); [14]): 0; Plant response rating, Kochia (kochia (Kochia scoparia); [15]): 0; Plant response rating, Pigweed [4, 13]: 50; Plant response rating, Pigweed [4, 14]: 0; Plant response rating, Pigweed [4, 15]: 30; Plant response rating, Ragweed [5, 13]: 0; Plant response rating, Ragweed [5, 14]: 0; Plant response rating, Ragweed [5, 15]: 0; Plant response rating, Wheat [6, 13]: 10; Plant response rating, Blackgrass [7, 13]: 40; Plant response rating, Galium [8, 13]: 90
FC(F)(F)c1cc(-c2c(Cl)cccc2Oc2ncc(Cl)cn2)on1 [Compound 126]	100			100			70		90		90	100	40	40	90	100	95	100	75	100	Plant response rating, Ryegrass, Italian [1, 16]: 40; Ryegrass, Italian plant response rating [1, 17]: 100; Plant response rating, Barnyardgrass [2, 18]: 80; Plant response rating, Barnyardgrass [2, 16]: 90; Barnyardgrass plant response rating [2, 17]: 100; Plant response rating, Corn (corn (Zea mays); [18]): 20; Plant response rating, Foxtail, Giant [3, 18]: 60; Plant response rating, Foxtail, Giant [3, 16]: 100; Foxtail, Giant plant response rating [3, 17]: 100; Plant response rating, Kochia (kochia (Kochia scoparia); [16]): 80; Kochia plant response rating (kochia (Kochia scoparia); [17]): 90; Plant response rating, Pigweed [4, 16]: 100; Pigweed plant response rating [4, 17]: 100; Plant response rating, Ragweed [5, 16]: 10; Ragweed plant response rating [5, 17]: 10; Plant response rating, Blackgrass [7, 18]: 60
Cn1nnc(-c2ccccc2Oc2ncc(Cl)cn2)n1 [Compound 48]	0	0	50	0	0	40	0	10	0	40	50	70	50	0	40	70	0	0	0	0	Plant response rating, Ryegrass, Italian [1, 14]: 40; Plant response rating, Barnyardgrass [2, 14]: 0; Plant response rating, Foxtail, Giant [3, 14]: 10; Plant response rating, Foxtail, Giant [3, 15]: 50; Plant response rating, Kochia (kochia (Kochia scoparia); [13]): 100; Plant response rating, Kochia (kochia (Kochia scoparia); [14]): 60; Plant response rating, Kochia (kochia (Kochia scoparia); [15]): 80; Plant response rating, Pigweed [4, 13]: 100; Plant response rating, Pigweed [4, 14]: 80; Plant response rating, Pigweed [4, 15]: 100; Plant response rating, Ragweed [5, 13]: 70; Plant response rating, Ragweed [5, 14]: 50; Plant response rating, Ragweed [5, 15]: 60; Plant response rating, Wheat [6, 13]: 0; Plant response rating, Blackgrass [7, 13]: 60; Plant response rating, Galium [8, 13]: 100
Cn1ccnc1-c1ccccc1Oc1ncc(Cl)cn1 [Compound 151]	0	0	0	0	0	0	0	0	0	0	0	0	0	0	0	0	0	0	0	0	Ryegrass, Italian plant response rating [1, 17]: 0; Barnyardgrass plant response rating [2, 17]: 0; Foxtail, Giant plant response rating [3, 17]: 0; Plant response rating, Foxtail, Giant [3, 15]: 0; Plant response rating, Kochia (kochia (Kochia scoparia); [13]): 0; Kochia plant response rating (kochia (Kochia scoparia); [17]): 0; Plant response rating, Kochia (kochia (Kochia scoparia); [15]): 0; Plant response rating, Pigweed [4, 13]: 0; Pigweed plant response rating [4, 17]: 0; Plant response rating, Pigweed [4, 15]: 0; Plant response rating, Ragweed [5, 13]: 0; Ragweed plant response rating [5, 17]: 0; Plant response rating, Ragweed [5, 15]: 0; Plant response rating, Wheat [6, 13]: 0; Plant response rating, Blackgrass [7, 13]: 0; Plant response rating, Galium [8, 13]: 0
